≈ marks a conversion by molar mass, not a printed value.

For test [1], the target named is T1, Serotonin 3 (5-HT3) receptor (Rattus norvegicus) (UniProt P35563+Q9JJ16). The test can be described thus: Tested for 5-HT 3 receptor antagonist potency by ability to inhibit the reflex bradycardia, the Bezold-Jarisch reflex in the rat. In kind it is functional.
Test [2] concerns the target 5-hydroxytryptamine receptor 4 (Rattus norvegicus) (UniProt Q62758). The test can be described thus: Stimulatory activity of intragastric pressure was tested in the rat. It counts as functional.
Test [3] has as its target 5-hydroxytryptamine receptor 4 (Cavia porcellus) (UniProt O70528). The test can be described thus: Relative ability to increase cholinergically mediated contractions in isolated ileum of guinea pig. In kind it is functional, tissue-based.
For test [4], the species on record is Canis familiaris. The test can be described thus: Tested against rhythmic contractile activity in a Heidenhain pouch dog preparation. In kind it is functional, Canis lupus familiaris.
For test [5], the target named is T1, Serotonin 3 (5-HT3) receptor (Rattus norvegicus). Nature of the test: Compound was tested for its 5-HT 3 receptor antagonist potency by their ability to inhibit the reflex bradycardia, the Bezold-Jarisch reflex in the rat. It counts as functional.

Chain of 5-hydroxytryptamine receptor 4 (Rattus norvegicus) (Q62758 whole entry): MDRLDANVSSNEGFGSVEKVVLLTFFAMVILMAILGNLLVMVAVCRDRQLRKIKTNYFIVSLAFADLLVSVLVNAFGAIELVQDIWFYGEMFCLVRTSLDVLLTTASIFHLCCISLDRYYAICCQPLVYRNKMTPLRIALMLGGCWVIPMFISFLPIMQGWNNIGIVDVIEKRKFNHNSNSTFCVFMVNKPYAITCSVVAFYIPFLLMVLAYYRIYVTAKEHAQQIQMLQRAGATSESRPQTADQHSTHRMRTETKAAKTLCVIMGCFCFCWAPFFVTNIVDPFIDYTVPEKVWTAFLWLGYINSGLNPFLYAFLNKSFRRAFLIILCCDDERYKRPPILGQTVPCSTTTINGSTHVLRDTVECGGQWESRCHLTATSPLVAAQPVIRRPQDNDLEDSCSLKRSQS
Chain of 5-hydroxytryptamine receptor 4 (Cavia porcellus) (O70528 whole entry): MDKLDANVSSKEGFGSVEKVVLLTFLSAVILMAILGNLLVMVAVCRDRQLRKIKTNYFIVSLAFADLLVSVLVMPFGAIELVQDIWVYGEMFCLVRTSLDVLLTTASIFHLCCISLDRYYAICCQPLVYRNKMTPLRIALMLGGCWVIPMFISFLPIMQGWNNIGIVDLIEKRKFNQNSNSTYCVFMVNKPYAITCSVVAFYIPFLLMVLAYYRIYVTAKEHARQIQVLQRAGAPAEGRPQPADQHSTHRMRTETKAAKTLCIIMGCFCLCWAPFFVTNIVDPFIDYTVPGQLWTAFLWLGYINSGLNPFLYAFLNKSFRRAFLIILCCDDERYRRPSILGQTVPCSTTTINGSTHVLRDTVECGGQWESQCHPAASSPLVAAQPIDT

A word on the ED50: it is the dose at which the effect has come halfway, by size or by number of responders. Read a high ED50 as a need for a large dose. In general, EC20 refers to the point of the concentration-response curve where the effect stands at 20%. A high value points to weaker potency. Compound `COc1cc(N)c(Cl)cc1C(=O)NC1CC2CCCN(C2)C1` (configuration not stated) had an ID50 in test [1] of 0.0055 mg/kg. Moreover, in test [2], the 50% effective dose (ED50) is over 1 mg/kg. Further, the 20% effect concentration (EC20) in test [3] turned out to be 0.002 µg/mL (≈ 0.00618 µM). Besides, the LAD in test [4] was over 0.1 mg/kg. Regarding `COc1cc(N)c(Cl)cc1C(=O)NC12CCC(CC1)NC2`, the ID50 in test [5] amounted to 0.086 mg/kg. For the same compound, the LAD in test [4] is 0.01 mg/kg. `COc1cc(N)c(Cl)cc1C(=O)NC1CCN2CCSC1C2` (configuration not stated) gave an ED50 in test [2] of 0.5 mg/kg. The same compound displayed an LAD in test [4] of 0.01 mg/kg. In test [3], `COc1cc(N)c(Cl)cc1C(=O)NC1CCNC(C)C12CCC2C` (configuration not stated) returned an EC20 of 0.056 µg/mL (≈ 0.159 µM). The same compound showed an LAD in test [4] of 0.05 mg/kg. In the case of `COc1cc(N)c(Cl)cc1C(=O)N[C@H]1CCN2CCC[C@@H]1C2` [listing 1 of 2 here], in test [4], the LAD stood at 0.01 mg/kg.

For `COc1cc(N)c(Cl)cc1C(=O)NC1CC(C)NCC12CCC2` (configuration not stated), the concentration for an effect of 20% (EC20) in test [3] amounted to 0.15 µg/mL (≈ 0.444 µM). In test [4], the LAD came to 0.25 mg/kg. In turn, `COc1cc(N)c(Cl)cc1C(=O)NC1CCNCC12CCC2C` (configuration not stated) gave a concentration for an effect of 20% (EC20) in test [3] of 0.018 µg/mL (≈ 0.0533 µM). Besides, the LAD in test [4] was 0.05 mg/kg. `COc1cc(N)c(Cl)cc1C(=O)N[C@H]1CCN2CCC[C@@H]1C2` [listing 2 of 2 here] registered an ID50 in test [1] of 0.0042 mg/kg. The compound further came in with a concentration for an effect of 20% (EC20) in test [3] of 0.022 µg/mL (≈ 0.0679 µM). `COc1cc(N)c(Cl)cc1C(=O)N[C@H]1CCN2CCC[C@@H]1C2` (relative stereo) [listing 1 of 2 here] registered an LAD in test [4] of 0.05 mg/kg. In test [1], `COc1cc(N)c(Cl)cc1C(=O)N[C@H]1CCN2CCC[C@@H]1C2` (relative stereo) [listing 2 of 2 here] showed an ID50 of over 0.1 mg/kg. Also, the 20% effect level in test [3] (EC20) was put at 0.087 µg/mL (≈ 0.269 µM). Turning to `COc1cc(N)c(Cl)cc1C(=O)NC1CCN2CCOC1C2` (single isomer, unassigned; (+)) [listing 1 of 2 here], the LAD in test [4] is 0.01 mg/kg.

Take `COc1cc(N)c(Cl)cc1C(=O)NC1CCN2CCOC1C2` (single isomer, unassigned; (+)) [listing 2 of 2 here]: the ID50 in test [1] was 0.018 mg/kg. In addition, in test [2], the 50% effect level (ED50) was put at a dose of 0.1 mg/kg. As for `COc1cc(N)c(Cl)cc1C(=O)NC1CCN2CCCC1C2` (single isomer, unassigned; (-)), the ID50 in test [1] is 0.0039 mg/kg. The compound further returned a concentration for an effect of 20% (EC20) in test [3] of 0.032 µg/mL (≈ 0.0988 µM). In test [1], `COc1cc(N)c(Cl)cc1C(=O)NC1CCN2CCOC1C2` (single isomer, unassigned; (-)) returned an ID50 of 0.032 mg/kg. Besides, the 50% effect level in test [2] (ED50) was put at a dose of 0.1 mg/kg.

In test [1], `COc1cc(N)c(Cl)cc1C(=O)NC1CCN2CCCC1C2` (stereo in doubt) returned an ID50 of 0.0033 mg/kg. In test [2], this compound came in with an ED50 of 0.1 mg/kg. For the same compound, the EC20 in test [3] was 0.007 µg/mL (≈ 0.0216 µM). Regarding `COc1cc(N)c(Cl)cc1C(=O)NC1CCN2CCOC1C2` (stereo in doubt), in test [1], the ID50 turned out to be 0.019 mg/kg. In addition, the ED50 in test [2] stood at 0.1 mg/kg. Turning to `COc1cc(N)c(Cl)cc1C(=O)NC1CCN2CCCC1C2` (stereo in doubt) [RENZAPRIDE], the LAD in test [4] was determined as 0.01 mg/kg. For `COc1cc(N)c(Cl)cc1C(=O)NC1CCN2CCCC1C2` (stereo in doubt; 5d), the ID50 in test [1] turned out to be 0.03 mg/kg. The compound further showed an ED50 in test [2] of 0.1 mg/kg. Further, the concentration for an effect of 20% (EC20) in test [3] was 0.0004 µg/mL (≈ 0.00124 µM). `COc1cc(N)c(Cl)cc1C(=O)NC1CCN2CCCC1C2` (stereo in doubt; 5d) [RENZAPRIDE] came in with an LAD in test [4] of 0.005 mg/kg. `COc1cc(N)c(Cl)cc1C(=O)NC1CN2CCCC1C2` (stereo in doubt; endo) [listing 1 of 2 here] returned an LAD in test [4] of 0.01 mg/kg. In turn, `COc1cc(N)c(Cl)cc1C(=O)NC1C2CC3CCN(C2)CC1C3` (stereo in doubt; endo) [listing 1 of 2 here] showed an LAD in test [4] of 0.01 mg/kg. Regarding `COc1cc(N)c(Cl)cc1C(=O)NC1C2CC3CCN(C2)CC1C3` (stereo in doubt; endo) [listing 2 of 2 here], in test [1], the ID50 was determined as 0.0034 mg/kg. As for `COc1cc(N)c(Cl)cc1C(=O)NC1CN2CCCC1C2` (stereo in doubt; endo) [listing 2 of 2 here], the ID50 in test [1] was found to be 0.003 mg/kg. Also, the 50% effect level in test [2] (ED50) was put at a dose of 0.06 mg/kg. It took 0.017 µg/mL (≈ 0.0549 µM) to reach the 20% level in test [3] (EC20). Turning to `COc1cc(N)c(Cl)cc1C(=O)NC1CN2CCCC1C2` (stereo in doubt; exo) [listing 1 of 2 here], in test [4], the LAD is 0.05 mg/kg.

`COc1cc(N)c(Cl)cc1C(=O)NC1C2CC3CCN(C2)CC1C3` (stereo in doubt; exo) [listing 1 of 2 here] displayed an LAD in test [4] of 0.05 mg/kg.

`COc1cc(N)c(Cl)cc1C(=O)NC1C2CC3CCN(C2)CC1C3` (stereo in doubt; exo) [listing 2 of 2 here] came in with an ID50 in test [1] of 0.059 mg/kg. Regarding `COc1cc(N)c(Cl)cc1C(=O)NC1CN2CCCC1C2` (stereo in doubt; exo) [listing 2 of 2 here], the ID50 in test [1] was determined as 0.045 mg/kg. Moreover, the EC20 in test [3] worked out at 0.047 µg/mL (≈ 0.152 µM). `CCN(CC)CCNC(=O)c1cc(Cl)c(N)cc1OC` [METOCLOPRAMIDE] yielded an ID50 in test [1] of 0.5 mg/kg. The compound also registered a median effective dose (ED50) in test [2] of 1 mg/kg. The EC20 in test [3] is 0.12 µg/mL (≈ 0.4 µM). The LAD in test [4] was found to be 0.25 mg/kg.

These data come from ChEMBL document CHEMBL1126614, “Substituted benzamides with conformationally restricted side chains. 5. Azabicyclo[x.y.z] derivatives as 5-HT4 receptor agonists and gastric motility stimulants” (1993).
